# From US20100184676A1, “USE OF A PEPTIDE AS A THERAPEUTIC AGENT” (priority 2007, published 2010)
# Columns and labels:
# HepG2-2.2.15 cells = test: Cell viability (dye uptake) in HBV assay; format: cell-based; settings: peptide 10 micrograms per ml
# Description: (§1) HepG2-2.2.15 cells were plated in 96-well microtiter plates. After 16-24 hours the confluent monolayer of HepG2-2.2.15 cells was washed and the medium was replaced with complete medium containing test peptide—10 micrograms per ml—in duplicate. Lamivudine (3TC) was used as the positive control, while media alone was added to the cells as a negative control (virus control). Three days later the culture medium was replaced with fresh medium containing the peptide. Six days following the initial administration of the peptide, the cell culture supernatants was collected, treated with pronase and DNAse and then used in a real-time quantitative TaqMan PCR assay. The PCR-amplified HBV DNA was detected in real-time by monitoring increases in fluorescence signals that result from the exonucleolytic degradation of a quenched fluorescence probe molecule that hybridizes to the amplified HBV DNA. For each PCR amplification, a standard curve was simultaneously generated using dilutions of purified HBV DNA. Antiviral activity was calculated from the reduction in HBV DNA levels (% virus control). A novel dye uptake assay was then employed to measure cell viability, which is used to calculate toxicity (% cell control).
# HIV-1IIIB = test: HIV-1 antiviral assay (CPE reduction, MTS) in CEM-SS cells; format: cell-based; settings: peptide 10 micrograms per ml, 6 days post-infection
# CEM-SS cells = test: Cytotoxicity (MTS cell viability) in HIV-1 experiments; settings: peptide 10 micrograms per ml
# spleen cells = test: Th1/Th2 cytokine profiling assay; format: cell-based, Balb/c mice; settings: Ovalbumin restimulation; peptide 10 micrograms per ml; 72 hours
# Pseudomonas aeruginosa = format: cell-based; settings: 5 micrograms per ml
# Streptococcus pneumoniae = format: cell-based; settings: 5 micrograms per ml
# A549 cells [1] = test: Propidium iodide cell cycle assay; format: cell-based, human; settings: 24 hours, peptide 10 micrograms per ml, FACS
# Excerpt: Disregulation of the cell cycle components may lead to tumor formation.
# [2] = tested on: Primary Human endothelial cells (HUVEC); test: Endothelial cell migration assay; format: cell-based; settings: peptide 10 micrograms per ml, 22 hours
# [3] = Cell viability (dye uptake) in HBV assay; format: cell-based; settings: human, HepG2-2.2.15 cells, peptide 10 micrograms per ml
# Description: as §1
# in vitro [4] = settings: human, MRC-5 cells
# in vitro [5] = settings: human, CEM-SS cells
# A549 cells [6] = test: Apoptosis prevention assay (C2 ceramide, Annexin-5); format: cell-based, human; settings: A549 cells pretreated 30 min, peptide 10 micrograms per ml
# MRSA = settings: 5 micrograms per ml
# [7] = tested on: Human Peripheral Blood Mononuclear Cells (PBMC); test: B cell proliferation assay (SAC plus Interleukin-2, 3H-thymidine); format: cell-based; settings: peptide 10 micrograms per ml, 3H-thymidine incorporation
# HCMV strain AD169 = test: HCMV plaque reduction assay in MRC-5 cells; settings: HCMV AD169 in MRC-5 cells; peptide 10 micrograms per ml; 7-10 days
# TNF alpha = TNF alpha production assay (LPS-stimulated macrophages, ELISA); format: cell-based, human; settings: macrophages from PBMC, peptide 10 micrograms per ml, lipopolysaccharide 200 ng/ml, overnight
# Excerpt: Not stimulated macrophages served as negative background control.
# [8] = tested on: hepatitis B virus (HBV) ayw strain; test: HBV experimental assay system (secreted HBV DNA, TaqMan PCR); format: cell-based; settings: peptide 10 micrograms per ml; six days; HBV DNA in supernatant
# Description: HepG2-2.2.15 is a stable cell line containing the hepatitis B virus (HBV) ayw strain genome (ATCC Cat. No. CRL-11997). Antiviral compounds blocking any late step of viral replication such as transcription, translation, pregenome encapsidation, reverse transcription, particle assembly and release can be identified and characterized using this cell line.
# as §1, with “Lamivudine (3TC) was used as the positive control, while media alone was added to the cells as a negative control (virus control).” left out, “A novel dye uptake assay was then employed to measure cell viability, which is used to calculate toxicity (% cell control).” left out
# RAW 264.7 cells = test: Phagocytosis assay (Fluorescein-labeled Escherichia coli); format: cell-based, mouse; settings: peptide 10 micrograms per ml, flow cytometry
# HUVEC = test: Endothelial tube formation assay; format: cell-based, human; settings: peptide 10 micrograms per ml, 20 hours, average tubule length
# Excerpt: Positive control was vehicle only.
# A549 cells [9] = test: Apoptosis induction assay (Annexin-5); format: cell-based, human; settings: 24 hours
# [10] = tested on: Human Peripheral Blood Mononuclear Cells (PBMC); test: T cell proliferation assay (PHA, 3H-thymidine); format: cell-based; settings: peptide 10 micrograms per ml, 3H-thymidine incorporation
# MRC-5 cells = settings: human, 6 days
structure (smiles),measurement,setting,value
"Nc1ccn([C@@H]2CS[C@H](CO)O2)c(=O)n1 [3TC, Lamivudine, reference compound]",% Cell viability,HepG2-2.2.15 cells,95.8%
Cc1cn([C@H]2C[C@H](N=[N+]=[N-])[C@@H](CO)O2)c(=O)[nH]c1=O [AZT],% CPE reduction in HIV-1 infected CEM-SS cells,HIV-1IIIB,99%
same,% Cell viability,CEM-SS cells,97%
CC[C@H](C)[C@H](NC(=O)[C@H](CCC(N)=O)NC(=O)[C@H](Cc1c[nH]cn1)NC(=O)[C@H](C)NC(=O)[C@H](CC(C)C)NC(=O)[C@H](CCCCN)NC(=O)[C@H](CCC(N)=O)NC(=O)[C@@H](NC(=O)[C@@H](NC(=O)[C@@H]1CSSC[C@H](NC(=O)CNC(=O)[C@H](Cc2ccccc2)NC(=O)[C@H](CO)NC(=O)[C@H](CCCNC(=N)N)NC(=O)[C@H](CC(C)C)NC(=O)CNC(=O)[C@H](CCC(N)=O)NC(=O)[C@H](Cc2ccccc2)NC(=O)[C@H](CC(N)=O)NC(=O)[C@H](CC(N)=O)NC(=O)[C@H](CCSC)NC(=O)[C@H](CO)NC(=O)[C@H](CCC(N)=O)NC(=O)[C@H](CCCNC(=N)N)NC(=O)[C@@H](N)Cc2ccc(O)cc2)C(=O)N[C@@H](CCCNC(=N)N)C(=O)N[C@@H](Cc2ccccc2)C(=O)NCC(=O)N[C@@H]([C@@H](C)O)C(=O)N1)[C@@H](C)O)C(C)C)C(=O)N[C@@H](Cc1ccc(O)cc1)C(=O)N[C@@H](CCC(N)=O)C(=O)N[C@@H](Cc1ccccc1)C(=O)N[C@H](C(=O)N[C@@H](CC(=O)O)C(=O)N[C@@H](CCCCN)C(=O)N[C@@H](CC(=O)O)C(=O)N[C@@H](CCCCN)C(=O)N[C@@H](CC(=O)O)C(=O)N[C@@H](CC(N)=O)C(=O)N[C@H](C(=O)N[C@@H](C)C(=O)N1CCC[C@H]1C(=O)N[C@@H](CCCNC(=N)N)C(=O)N[C@@H](CO)C(=O)N[C@@H](CCCCN)C(=O)N[C@H](C(=O)N[C@@H](CO)C(=O)N1CCC[C@H]1C(=O)N[C@@H](CCC(N)=O)C(=O)NCC(=O)N[C@@H](Cc1ccc(O)cc1)C(N)=O)[C@@H](C)CC)C(C)C)[C@@H](C)O [Adrenomedullin],IFNγ spleen cells; TH1 response (% of control),spleen cells,24.5 % of control
same,IL-2 spleen cells (% of control),spleen cells,0.0 % of control
same,IL-4 spleen cells; TH2 response (% of control),spleen cells,0.0 % of control
same,IL-5 spleen cells; TH2 response (% of control),spleen cells,28.1 % of control
same,TNF-a spleen cells; TH1 response (% of control),spleen cells,66.7 % of control
same,% inhibition,Pseudomonas aeruginosa,0.0%
same,% inhibition,Streptococcus pneumoniae,0.0%
same,Cell cycle analysis G0/G1,A549 cells [1],57.8
same,Cell cycle analysis G2/M,A549 cells [1],9.5
same,Cell cycle analysis S,A549 cells [1],32.7
same,% inhibition of migration,[2],−34%
same,"viability at 144 h, 10 micrograms per ml",[3],100%
same,viability at 144 h,in vitro [4],100%
same,% CPE reduction in HIV-1 infected CEM-SS cells,HIV-1IIIB,0.0%
same,viability at 10 micrograms per ml,in vitro [5],92.9%
same,% prevention of ceramide induced apoptosis,A549 cells [6],0.0%
same,% inhibition,MRSA,0.0%
same,% of SAC/IL2 induced control,[7],111.0%
same,% plaque reduction,HCMV strain AD169,0.0%
same,% of LPS induction,TNF alpha,100.9%
same,% inhibition of HBV replication in HEP G2 cells,[8],0.0%
same,% of control phagocytosis,RAW 264.7 cells,108.8%
same,% inhibition of tube formation,HUVEC,26%
same,% of induction,A549 cells [9],1.5%
same,% of PHA induced control,[10],107.1%
"Nc1nc(O)c2ncn(COC(CO)CO)c2n1 [Ganciclovir, reference compound]",% Cell viability,MRC-5 cells,100%
same,% plaque reduction,HCMV strain AD169,100%
"CC(C)(C)NC(=O)[C@@H]1CN(Cc2cccnc2)CCN1C[C@@H](O)C[C@@H](Cc1ccccc1)C(=O)N[C@H]1c2ccccc2C[C@H]1O [Indinavir, indinavir]",% CPE reduction in HIV-1 infected CEM-SS cells,HIV-1IIIB,100%
